Calls of active or inactive are those of the source. The calls are words filed in the database; no cut-off is given here.
Key:
[1] = test system: Echinochloa oryzicola; assay: Drug metabolism in 2.5-leaf stage Echinochloa oryzicola assessed as 1-[1-(3,5-dichlorophenyl)-1-methylethyl]-4-methyl-3-phenyl-3-pyrrolin-2-one level per gram of fresh weight at 25 nM after 6 days; assay type: ADME, organism-based; details: in vivo, 144 h, 0.025 µM
[2] = Drug metabolism assessed as parent compound level in presence of porcine esterase and 10 uM of triphenyl phosphate; assay type: physicochemical; details: pig, isolated protein
[3] = Drug metabolism assessed as formation of 1-[1-(3,5-dichlorophenyl)-1-methylethyl]-4-methyl-3-phenyl-3-pyrrolin-2-one in presence of porcine esterase and 10 uM triphenyl phosphate; assay type: physicochemical; details: pig, isolated protein
[4] = Drug metabolism assessed as parent compound level in presence of porcine esterase and 1 uM of triphenyl phosphate; assay type: physicochemical; details: pig, isolated protein
[5] = Drug metabolism assessed as formation of 1-[1-(3,5-dichlorophenyl)-1-methylethyl]-4-methyl-3-phenyl-3-pyrrolin-2-one in presence of porcine esterase and 1 uM triphenyl phosphate; assay type: physicochemical; details: pig, isolated protein
[6] = Drug metabolism assessed as parent compound level in presence of porcine esterase; assay type: physicochemical; details: pig, isolated protein
[7] = Drug metabolism assessed as formation of 1-[1-(3,5-dichlorophenyl)-1-methylethyl]-4-methyl-3-phenyl-3-pyrrolin-2-one in presence of porcine esterase; assay type: physicochemical; details: pig, isolated protein
[8] = test system: Oryza sativa; assay: Toxicity in zero transplanted Oryza sativa (rice) assessed as growth inhibition at 5 to 10 g/a by greenhouse test in presence of fenitrothion; assay type: organism-based; details: in vivo
[9] = test system: Oryza sativa; assay: Toxicity in zero transplanted Oryza sativa (rice) assessed as growth inhibition at 5 to 10 g/a by greenhouse test in presence of triphenyl phosphate; assay type: organism-based; details: in vivo
[10] = test system: Oryza sativa; assay: Toxicity in zero transplanted Oryza sativa (rice) assessed as growth inhibition at 5 to 10 g/a by greenhouse test; assay type: organism-based; details: in vivo
[11] = test system: Oryza sativa; assay: Toxicity in 2 cm transplanted Oryza sativa (rice) assessed as growth inhibition at 10 g/a by greenhouse test; assay type: organism-based; details: in vivo
[12] = test system: Echinochloa oryzicola; assay: Herbicidal activity against 2.5-leaf stage of Echinochloa oryzicola assessed as growth inhibition at 2.5 g/a by greenhouse test in presence of fenitrothion; assay type: functional, organism-based
[13] = test system: Echinochloa oryzicola; assay: Herbicidal activity against 2.5-leaf stage of Echinochloa oryzicola assessed as growth inhibition at 2.5 g/a by greenhouse test in presence of triphenyl phosphate; assay type: functional, organism-based
[14] = test system: Echinochloa oryzicola; assay: Herbicidal activity against 2.5-leaf stage of Echinochloa oryzicola assessed as growth inhibition at 2.5 g/a by greenhouse test; assay type: functional; details: read-out: GI
[15] = test system: Echinochloa oryzicola; assay: Herbicidal activity against Echinochloa oryzicola assessed as shoot length after 7 days by hydroponics test in presence of 1-aminobenzotriazole; assay type: functional, organism-based
[16] = test system: Echinochloa oryzicola; assay: Herbicidal activity against Echinochloa oryzicola assessed as shoot length after 7 days by hydroponics test in presence of tributylphosphate; assay type: functional, organism-based
[17] = test system: Echinochloa oryzicola; assay: Herbicidal activity against Echinochloa oryzicola assessed as shoot length after 7 days by hydroponics test in presence of fenitrothion; assay type: functional, organism-based
[18] = test system: Echinochloa oryzicola; assay: Herbicidal activity against Echinochloa oryzicola assessed as shoot length after 7 days by hydroponics test in presence of triphenyl phosphate; assay type: functional, organism-based
[19] = test system: Oryza sativa; assay: Toxicity in Oryza sativa (rice) assessed as shoot length after 7 days by hydroponics test; assay type: organism-based; details: 168 h, read-out: I50
[20] = test system: Echinochloa oryzicola; assay: Herbicidal activity against Echinochloa oryzicola assessed as shoot length after 7 days by hydroponics test; assay type: functional, organism-based; details: 168 h, read-out: I50
[21] = test system: Oryza sativa; assay: Drug metabolism in 2.5-leaf stage Oryza sativa (rice) assessed as 1-[1-(3,5-dichlorophenyl)-1-methylethyl]-4-methyl-3-phenyl-3-pyrrolin-2-one level per gram of fresh weight at 25 nM after 6 days; assay type: ADME, organism-based; details: in vivo, 144 h, 0.025 µM

COC(=O)C1(c2ccccc2)C(=O)N(C(C)(C)c2cc(Cl)cc(Cl)c2)C=C1C (stereo not given)
Drug metabolism [1]: 1.88 nM | Drug metabolism [2]: 4.26 µM | Drug metabolism [3]: 0.66 µM | Drug metabolism [4]: 2.5 µM | Drug metabolism [5]: 2.69 µM | Drug metabolism [6]: 1.97 µM | Drug metabolism [7]: 3 µM | Activity [8]: Non-toxic | Activity [9]: Non-toxic | Activity [10]: Toxic | Activity [11]: Non-toxic | growth inhibition (GI) [12]: inactive | growth inhibition (GI) [13]: inactive | inhibition of growth at 250 g/ha [14]: 96% | Activity [15]: Active | Activity [16]: Active | Activity [17]: inactive | Activity [18]: inactive | IC50 [19]: 2630 nM | IC50 [20]: 25 nM | Drug metabolism [21]: 0.47 nM

CC1=C(c2ccccc2)C(=O)N(C(C)(C)c2cc(Cl)cc(Cl)c2)C1
growth inhibition (GI) [12]: Active | growth inhibition (GI) [13]: Active | IC50 [19]: 115 nM | IC50 [20]: 12 nM
